In patent US11400056B2, “Pharmaceutical composition comprising gallstone solubilizer for treatment of gallbladder disease” (SurgiNex Co., Ltd., priority 2016, dated 2022):

How the values were obtained:
[1] = Evaluation of gallstone dissolution, cholesterol stone; parameters: species or system human; conditions: 37° C., 4 hours; for Dissolution ability (%) Cholesterol stone: 0.5 g gallstone + 0.5 ml agent (1 g compound in 1 ml DMSO), (weight after dissolution)/(weight before dissolution)×100
Experimental: (§1) In order to evaluate the cholesterol stone and pigmented stone dissolution abilities of each of Examples 1 to 3 and Comparative Examples 1 and 2 prepared according to the Preparation Example above, cholesterol stones and pigmented stones removed during surgery of gallstone patients were obtained, thereby preparing gallstones. 0.5 g of each of the prepared gallstones was placed in an Eppendorf tube, and then 0.5 ml of each of the gallstone-dissolving agents of Examples 1 to 3 and Comparative Examples 1 and 2 was added to the Eppendorf tube containing the gallstone. Each tube was left to stand at 37° C. for 4 hours. Thereafter, the gallstone dissolution ability of each compound was evaluated by measuring the mass of the gallstones before and after dissolving the gallstone by treatment with each compound. The results of evaluating the abilities to dissolve cholesterol stones and pigmented stones are shown in Tables 2 and 3 below, respectively, and photographs before and after dissolving the gallstones are comparatively shown in FIGS. 1 and 2, respectively.
(§2) The gallstone dissolution ability was calculated using the following equation: Gallstone dissolution ability (%)=(weight of gallstone after dissolution)/(weight of gallstone before dissolution)×100

[2] = Evaluation of gallstone dissolution, pigmented stone; parameters: species or system human; conditions: 0.5 g gallstone + 0.5 ml agent (1 g compound in 1 ml DMSO), 37° C., 4 hours; (weight after dissolution)/(weight before dissolution)×100
Experimental: as §1, §2

Structure (SMILES): COC(=O)c1cccc(C)c1 [Example 2, methyl 3-methylbenzoate]
- Dissolution ability (%) Cholesterol stone [1]: 10.00%
- ability to dissolve the cholesterol stone (in words) ([1]; Table 2 and FIG. 1): excellent ability to dissolve the cholesterol stone
- Dissolution ability (%) Pigmented stone [2]: 58.33%

Structure (SMILES): CCOC(=O)CC [Comparative Example 2, ethyl propionate, reference compound]
- Dissolution ability (%) Cholesterol stone [1]: 48.66%

Structure (SMILES): COc1cccc(C)n1 [Example 1, 2-methoxy-6-methylpyridine]
- Dissolution ability (%) Cholesterol stone [1]: 14.16%
- Dissolution ability (%) Pigmented stone [2]: 52.92%

Structure (SMILES): COC(C)(C)C [Comparative Example 1, Methyl tert-butyl ether, reference compound]
- Dissolution ability (%) Cholesterol stone [1]: 24.07%

Structure (SMILES): CC(=O)C1CC1 [Example 3, 1-cyclopropylethanone]
- Dissolution ability (%) Cholesterol stone [1]: 28.57%
- Dissolution ability (%) Pigmented stone [2]: 60.00%
